The numbers were not newly measured in publication PMC4237557 (Diabetes, Obesity & Metabolism, 2014), which cites them from elsewhere.

Series [1] deals with insulin-like growth factor 1 receptor (IGF-1R). As to conditions: in vitro.
For series [2] the following is noted: in vitro.

Take 21^A-Gly-human insulin [M1]: the “Glucose-lowering potency compared with parent glargine (M0)” value is listed as “equal glucose-lowering potency”. Also, in series [1], the “Affinity for IGF-1R compared with human insulin” value is on record as “lower affinity”. Also, the “Mitogenicity compared with endogenous human insulin” value in series [2] was “does not exhibit an increased affinity for IGF-1R or increased mitogenicity”.

Take “21^A-Gly-des-30^B-Thr-human insulin [M2]”: in series [1], the “Affinity for IGF-1R compared with human insulin” value was “lower affinity”.
